How the values were obtained:
[1] = test system: Dahl salt-sensitive (DSS) male rats; assay: Congestive heart failure (CHF) in vivo assay; conditions: week 5, high-salt diet, 10 μg/kg/day sc infusion
Procedure: In this assay, Dahl salt-sensitive (DSS) male rats were weaned at 21 days of age, maintained on a low-salt (LS) diet (0.2% NaCl) for 2 weeks. Rats were anesthetized with ketamine/xylazine (50 mg/kg/10 mg/kg, IP) and telemetry transmitters (Data Sciences, Inc.) were inserted to the aortic artery when rats were at 5 weeks of age. After surgery, the rats were allowed 10 days to recuperate before their BP (systolic and diastolic pressures) was recorded.
HS control animals (n=10 rats) were administered vehicle (50% DMSO) and fed HS in the same manner. LS control animals (n=5 rats) were maintained on the LS diet.

plasma carboxypeptidase = assay: Carboxypeptidase activity assay in human plasma, PYY(3-35) formation; type: biochemical; conditions: for inhibition of formation of PYY(3-35): 0.5 mM, human plasma
Procedure: Carboxypeptidase activity assays were performed in the presence of various agents to test for carboxypeptidase inhibitor activity of the agents.
The remainder of the sample was placed in an incubator at 37° C., mixing at 600 RPM for sixty minutes. At 10 minute intervals, a 100 μL sample of the mixture was removed and transferred to a separate microcentrifuge tubes. Following the transfer of the 100 μL sample at the zero time point and each 10 minute interval, each collected sample was extracted by slow addition of 100 μl cold 0.2% formic acid:acetonitrile, while mixing. After addition of the acetonitrile solution, the sample was vortex mixed at high speed for 15 seconds. The extracted samples were stored at −20° C. for at least 20 minutes and then centrifuged at 11,000×g for 10 minutes at 5° C. The supernatant of each sample was transferred to a new microcentrifuge tube, centrifuged again, and finally transferred for LC/MS analysis. The MS analysis was a Q1 single ion monitoring method that detects the most intense ion of the parent molecule and the peptide fragment of interest.

[2] = target: T1, human GIP receptor (HEK-GIPR membranes) (Homo sapiens, UniProt P48546); assay: GIP receptor binding displacement assay (RBA); conditions: read-out: GIP RBA % inhibition at 10 nM; 10 nM conjugate, 30 pM 125I-GIP
T1 construct: expressed in transfected cells
T1 sequence (P48546 22-466): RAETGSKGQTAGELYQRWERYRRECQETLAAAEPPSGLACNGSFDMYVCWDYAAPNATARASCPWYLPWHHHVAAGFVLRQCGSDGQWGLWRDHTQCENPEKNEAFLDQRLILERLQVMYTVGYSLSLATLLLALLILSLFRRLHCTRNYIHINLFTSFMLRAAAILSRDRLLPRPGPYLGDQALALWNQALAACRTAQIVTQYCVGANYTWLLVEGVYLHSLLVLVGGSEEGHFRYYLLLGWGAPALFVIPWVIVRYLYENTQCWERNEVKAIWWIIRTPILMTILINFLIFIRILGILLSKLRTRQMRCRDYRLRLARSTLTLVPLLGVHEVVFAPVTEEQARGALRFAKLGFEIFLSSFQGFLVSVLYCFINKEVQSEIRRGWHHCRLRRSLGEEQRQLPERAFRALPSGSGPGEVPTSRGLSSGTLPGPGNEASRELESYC
Procedure: Membrane fractions were prepared from confluent cell cultures of HEK-GIPR, snap frozen, and stored at −80° C. until use. […] Reactions were allowed to proceed to equilibrium for 90 minutes at room temperature with constant shaking. The reaction mixtures were then filtered through 96-well glass fiber filter plates separating bound and unbound fractions of radioligand.

Recombinant DPP-IV = Recombinant DPP-IV (Homo sapiens, UniProt P27487); assay: DPP-IV inhibition assay with chromogenic substrate; type: biochemical; parameters: purchased Chemicon International, Inc., Temecula, Calif; conditions: mean SEM of at least three determinations
Sequence of Recombinant DPP-IV (P27487 whole entry, species assumed): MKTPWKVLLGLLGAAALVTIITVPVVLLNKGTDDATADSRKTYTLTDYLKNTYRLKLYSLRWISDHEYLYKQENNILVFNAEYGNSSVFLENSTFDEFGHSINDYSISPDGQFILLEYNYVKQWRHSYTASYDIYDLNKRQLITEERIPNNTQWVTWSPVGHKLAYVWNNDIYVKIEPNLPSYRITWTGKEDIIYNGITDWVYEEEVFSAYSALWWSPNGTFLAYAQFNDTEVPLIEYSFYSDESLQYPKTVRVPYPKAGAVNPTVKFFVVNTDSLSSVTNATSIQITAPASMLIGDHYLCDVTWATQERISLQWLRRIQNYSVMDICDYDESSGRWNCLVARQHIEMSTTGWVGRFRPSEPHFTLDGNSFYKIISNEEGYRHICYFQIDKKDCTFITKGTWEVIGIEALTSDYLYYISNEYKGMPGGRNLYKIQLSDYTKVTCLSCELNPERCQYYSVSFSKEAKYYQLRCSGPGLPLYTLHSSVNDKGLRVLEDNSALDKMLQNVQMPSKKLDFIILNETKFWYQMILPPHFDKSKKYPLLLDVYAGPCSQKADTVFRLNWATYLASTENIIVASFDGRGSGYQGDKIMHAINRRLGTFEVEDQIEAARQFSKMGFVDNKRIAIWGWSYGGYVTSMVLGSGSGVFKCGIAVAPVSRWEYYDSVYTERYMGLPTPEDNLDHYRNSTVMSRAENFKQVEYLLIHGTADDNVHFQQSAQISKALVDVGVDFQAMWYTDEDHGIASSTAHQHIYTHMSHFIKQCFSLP
Procedure: The reactions were initiated by adding 1 μl DPP-IV enzyme (0.05 mU) into each well and the absorbance at 410 nm was measured with 20-sec intervals over a 30-min period using a SpectraMax plate reader (Molecular Devices, Corp., Sunnyvale, Calif.). The velocities of each reaction at different inhibitor concentrations were calculated and the reciprocal velocities were plotted against inhibitor concentrations in Dixon graphs. The IC50 values of reaction velocities were calculated through fitting the plots with linear equation.
The IC50 (nM) values in Table 5 are expressed as the mean SEM of at least three independent determinations.

NIH/Swiss mice = assay: Oral glucose tolerance test (OGTT), glucose lowering; conditions: IP, 2 hour fasted mice
[3] = human, kidney or brush border membranes, 4 h, pH 7.4
Procedure: The tubes were incubated in VorTemp 56™ (Eurotech Labs, UK) at 37° C. vortexed at 500 RPM. At time points of 0, 1, 2, 3, 4, and 5 hours, 200 μl STOP solution (50% ACN, 1% formic acid) was added to a given tube, and the samples were allowed to incubate until the end of the experiment. The samples were collected after 5 hours, centrifuged, and 200 μl of the supernatants were transferred into mass spectrometry vials. The intensities of the mother ions in each vial were analyzed with API 150EX™ mass spectrometer (Applied Biosystems, Foster City, Calif.) and quantified using the ANALYST™ program.
The hKBBM assay was also performed in the presence of valinepyrrolidide, a DPP-IV inhibitor.

CC[C@H](C)[C@H](NC(=O)[C@H](Cc1ccccc1)NC(=O)[C@H](CC(C)C)NC(=O)[C@H](CCCNC(=N)N)NC(=O)[C@@H](NC(=O)[C@H](C)NC(=O)[C@H](CCC(=O)O)NC(=O)[C@H](CCC(=O)O)NC(=O)[C@H](CCC(=O)O)NC(=O)[C@H](CC(C)C)NC(=O)[C@H](CCC(N)=O)NC(=O)[C@H](CCCCN)NC(=O)[C@H](CO)NC(=O)[C@H](CC(C)C)NC(=O)[C@H](CC(=O)O)NC(=O)[C@H](CO)NC(=O)[C@@H](NC(=O)[C@H](Cc1ccccc1)NC(=O)[C@@H](NC(=O)CNC(=O)[C@H](CCC(=O)O)NC(=O)CNC(=O)[C@@H](N)Cc1c[nH]cn1)[C@@H](C)O)[C@@H](C)O)C(C)C)C(=O)N[C@@H](CCC(=O)O)C(=O)N[C@@H](Cc1c[nH]c2ccccc12)C(=O)N[C@@H](CC(C)C)C(=O)N[C@@H](CCCCN)C(=O)N[C@@H](CCC(N)=O)C(=O)NCC(=O)NCC(=O)N1CCC[C@H]1C(=O)N[C@@H](CO)C(=O)N[C@@H](CCCCN)C(=O)N[C@@H](CCC(=O)O)C(=O)N[C@H](C(=O)N[C@H](C(=O)N[C@@H](CO)C(=O)NCCOCCOCCOCC(=O)NCCOCCOCC(=O)NCCCC[C@H](NC(CCc1ccccc1)C(=O)O)C(=O)N1CCC[C@H]1C(=O)O)[C@@H](C)CC)[C@@H](C)CC (stereo partly shown) [Compound 5715]
mean diastolic blood pressure [1]: 112 mmHg
mean heart rate [1]: 381
mean systolic blood pressure [1]: 161 mmHg

^36N-methyl-Tyr-amide-PYY(22-36) (ASLRHYLNLVTRQRY; HELM PEPTIDE1{A.S.L.R.H.Y.L.N.L.V.T.R.Q.R.[meY].[am]}$$$$V2.0; N-terminus assumed; SMILES CC(C)C[C@H](NC(=O)[C@H](CO)NC(=O)[C@H](C)N)C(=O)N[C@@H](CCCNC(=N)N)C(=O)N[C@@H](Cc1c[nH]cn1)C(=O)N[C@@H](Cc1ccc(O)cc1)C(=O)N[C@@H](CC(C)C)C(=O)N[C@@H](CC(N)=O)C(=O)N[C@@H](CC(C)C)C(=O)N[C@H](C(=O)N[C@H](C(=O)N[C@@H](CCCNC(=N)N)C(=O)N[C@@H](CCC(N)=O)C(=O)N[C@@H](CCCNC(=N)N)C(=O)N(C)[C@@H](Cc1ccc(O)cc1)C(N)=O)[C@@H](C)O)C(C)C) [N-terminal truncation of ^36N-methyl-Tyr-amide-PYY(3-36)]
inhibition of formation of PYY(3-35) (plasma carboxypeptidase): measurable but lower activity

CNC(Cc1ccc(O)cc1)C(N)=O (stereo not shown) [N-methyl-Tyr-NH2]
inhibition of formation of PYY(3-35) (plasma carboxypeptidase): did not inhibit

CC[C@H](C)[C@H](NC(=O)[C@H](CO)NC(=O)[C@H](Cc1ccc(O)cc1)NC(=O)[C@H](CC(=O)O)NC(=O)[C@H](CO)NC(=O)[C@@H](NC(=O)[C@H](Cc1ccccc1)NC(=O)[C@@H](NC(=O)CNC(=O)[C@H](CCC(=O)O)NC(=O)[C@H](C)NC(=O)[C@H](Cc1ccc(O)cc1)NC(=O)COCCOCCNC(=O)COCCOCCNC(=O)CC[C@H](N)C(=O)N1CCC[C@H]1C#N)[C@@H](C)O)[C@@H](C)CC)C(=O)N[C@@H](C)C(=O)N[C@@H](CCSC)C(=O)N[C@@H](CC(=O)O)C(=O)N[C@@H](CCCCN)C(=O)N[C@H](C(=O)N[C@@H](Cc1c[nH]cn1)C(=O)N[C@@H](CCC(N)=O)C(=O)N[C@@H](CCC(N)=O)C(=O)N[C@@H](CC(=O)O)C(=O)N[C@@H](Cc1ccccc1)C(=O)N[C@H](C(=O)N[C@@H](CC(N)=O)C(=O)N[C@@H](Cc1c[nH]c2ccccc12)C(=O)N[C@@H](CC(C)C)C(=O)N[C@@H](CC(C)C)C(=O)N[C@@H](C)C(=O)N[C@@H](CCC(N)=O)C(=O)N[C@@H](CCCCN)C(=O)O)C(C)C)[C@@H](C)CC [N-(γ-L-Glu-2-(S)-cyanopyrrolidyl)-Ado-Ado) GIP(1-30)]
inhibition at 0.01 µM [2]: 32%
IC50 (Recombinant DPP-IV): 64 ± 8 nM

CC[C@H](C)[C@H](NC(=O)[C@H](CO)NC(=O)[C@H](Cc1ccc(O)cc1)NC(=O)[C@H](CC(=O)O)NC(=O)[C@H](CO)NC(=O)[C@@H](NC(=O)[C@H](Cc1ccccc1)NC(=O)[C@@H](NC(=O)CNC(=O)[C@H](CCC(=O)O)NC(=O)[C@H](C)NC(=O)[C@@H](N)Cc1ccc(O)cc1)[C@@H](C)O)[C@@H](C)CC)C(=O)N[C@@H](C)C(=O)N[C@@H](CCSC)C(=O)N[C@@H](CC(=O)O)C(=O)N[C@@H](CCCCN)C(=O)N[C@H](C(=O)N[C@@H](Cc1c[nH]cn1)C(=O)N[C@@H](CCC(N)=O)C(=O)N[C@@H](CCC(N)=O)C(=O)N[C@@H](CC(=O)O)C(=O)N[C@@H](Cc1ccccc1)C(=O)N[C@H](C(=O)N[C@@H](CC(N)=O)C(=O)N[C@@H](Cc1c[nH]c2ccccc12)C(=O)N[C@@H](CC(C)C)C(=O)N[C@@H](CC(C)C)C(=O)N[C@@H](C)C(=O)N[C@@H](CCC(N)=O)C(=O)N[C@@H](CCCCNC(=O)COCCOCCNC(=O)CC[C@H](N)C(=O)N1CCC[C@H]1C#N)C(N)=O)C(C)C)[C@@H](C)CC [Lys^30N-ε-(Ado-(γ-L-Glu-2-(S)-cyanopyrrolidyl)) GIP(1-30)]
inhibition at 0.01 µM [2]: 33%
IC50 (Recombinant DPP-IV): 49 ± 6 nM

CC[C@H](C)[C@H](NC(=O)[C@H](Cc1ccccc1)NC(=O)[C@H](CCC(=O)O)NC(=O)[C@H](CCCCN)NC(=O)[C@H](C)NC(=O)[C@H](C)NC(=O)[C@H](CCC(N)=O)NC(=O)CNC(=O)[C@H](CCC(=O)O)NC(=O)[C@H](CC(C)C)NC(=O)[C@H](Cc1ccc(O)cc1)NC(=O)[C@H](CO)NC(=O)[C@H](CO)NC(=O)[C@@H](NC(=O)[C@H](CC(=O)O)NC(=O)[C@H](CO)NC(=O)[C@@H](NC(=O)[C@H](Cc1ccccc1)NC(=O)[C@@H](NC(=O)CNC(=O)[C@H](CCC(=O)O)NC(=O)[C@H](C)NC(=O)[C@H](Cc1c[nH]cn1)NC(=O)COCCOCCNC(=O)[C@@H]1CCCN1C(=O)[C@H](C)NC(CCc1ccccc1)C(=O)O)[C@@H](C)O)[C@@H](C)O)C(C)C)C(=O)N[C@@H](C)C(=O)N[C@@H](Cc1c[nH]c2ccccc12)C(=O)N[C@@H](CC(C)C)C(=O)N[C@H](C(=O)N[C@@H](CCCCN)C(=O)NCC(=O)N[C@@H](CCCNC(=N)N)C(N)=O)C(C)C (stereo partly drawn) [Compound 4983, (R,S)-1-[N^2-(1-carboxy-3-phenylpropyl)-L-ala]-L-pro-8-amino-3,6-dioxaoctanoyl-GLP-1-(7-36) amide]
glucose lowering in OGTT (FIGS. 7, 8) (NIH/Swiss mice): retain the glucose-lowering activity of GLP-1
intact conjugate compound present [3]: greater than 80%

NCCc1ccc(S(=O)(=O)F)cc1 [AEBSF, 4-(2-aminoethyl)-benzenesulfonylfluoride, reference compound]
inhibition of plasma carboxypeptidase activity (plasma carboxypeptidase; protease inhibitor at 1 mM): inhibited

^36N-methyl-Tyr-amide-PYY(34-36) (QRY; HELM PEPTIDE1{Q.R.[meY].[am]}$$$$V2.0; N-terminus assumed; SMILES CN(C(=O)[C@H](CCCNC(=N)N)NC(=O)[C@@H](N)CCC(N)=O)[C@@H](Cc1ccc(O)cc1)C(N)=O) [N-terminal truncation of ^36N-methyl-Tyr-amide-PYY(3-36)]
inhibition of formation of PYY(3-35) (plasma carboxypeptidase): did not inhibit
